# Literature values in patent US20230039551A1, “BUFFER- AND CHELATOR-FREE, STABLE OPHTHALMOLOGICAL COMPOSITIONS OF KETOROLAC AND PHENYLEPHRINE AND APPLICATIONS THEREOF” (Somerset Therapeutics, LLC, priority 2021, published 2023).
# Structures can show the parent of a compound that is named as a salt.
row,SMILES,pKa value
1,"CNC[C@H](O)c1cccc(O)c1 [Phenylephrine HCl, 3-(1R)-1-hydroxy-2-(methylamino)ethyl]phenol; hydrochloride]",about 9.07
2,"O=C(c1ccccc1)c1ccc2n1CCC2C(=O)O (centres unmarked) [Ketorolac tromethamine, 2-amino-2-(hydroxymethyl)propane-1,3-diol; 5-benzoyl-2,3-dihydro-1H-pyrrolizine-1-carboxylic acid]",about 3.5
